Assay results as given in paper PMC4912077 (PLoS ONE, 2016).

Experiments:
H3 = H3 (Homo sapiens, UniProt Q9Y5N1); experiment: NIMH PDSP radioligand binding, H3
Protocol: (§1) Radioligands and concentrations used for additional 45 CNS receptor binding assays are listed as supporting information (S1 Table). This work was performed by the National Institute of Mental Health Psychoactive Drug Screening Program (NIMH PDSP) as described previously.[26] Briefly target compounds were dissolved in DMSO and subjected to a primary screen at 10,000 nM concentration. […] Additional experimental details are available in the NIMH PDSP assay protocol book.

[1] = tested on: PCP site within the NMDAR channel; experiment: NMDAR binding, [3H]-MK-801 displacement in rat forebrain homogenate; conditions: for Ki: read-out: Ki ± SEM, [3H]-(+)-MK-801, rat forebrain, Cheng-Prusoff;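 on all read-outs here: IC50 by nonlinear regression of percent specific binding versus log concentration, Ki from IC50 via Cheng-Prusoff, raw counts in CPM, duplicates repeated at least three times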
Sigma 2 = biological target: T1, Sigma 2 (Rattus norvegicus, UniProt Q5U3Y7); experiment: NIMH PDSP radioligand binding, Sigma 2
T1 sequence (Q5U3Y7 1-176): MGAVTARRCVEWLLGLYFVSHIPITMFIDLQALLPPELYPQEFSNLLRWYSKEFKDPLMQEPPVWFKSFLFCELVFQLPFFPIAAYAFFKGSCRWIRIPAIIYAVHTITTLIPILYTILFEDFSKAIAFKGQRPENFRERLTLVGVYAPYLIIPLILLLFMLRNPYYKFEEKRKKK
Protocol: as §1

NET = NET (Homo sapiens, UniProt P23975); experiment: NIMH PDSP radioligand binding, NET
Protocol: as §1

Alpha2B = Alpha2B (Homo sapiens, UniProt P18089); experiment: NIMH PDSP radioligand binding, Alpha2B
Protocol: as §1

Human SERT = biological target: T2, Human SERT (Homo sapiens, UniProt P31645); experiment: Monoamine reuptake inhibition assay, SERT in HEK293 cells; format: cell-based
T2 construct: expressed in transfected cells; host or cells: HEK293
Protocol: (§2) Monoamine reuptake inhibition assays were performed via the NIMH PDSP as previously described.[28] In brief, the neurotransmitter transporter uptake assay kit (R8174) (Molecular Devices) was used. Human monoamine transporters (DAT, NET and SERT) were stably expressed in HEK293 cells. Assay buffer consisted of 20 mM HEPES, 1x HBSS at pH 7.4. Cells were plated in Pol-L-Lys (PLL) coated 384-well black clear bottom cell culture plates with a density of 15,000 cells/well. Cells were incubated for at least 6 h prior to assay. Media was removed and replaced with 20 μL assay buffer and 5 μL of drug or positive control (cocaine or nisoxetine) as a 5X stock. Cells were incubated for 30 min at 37°C. 25 μL of dye solution was then added and following an additional 30 min incubation (at 37°C) fluorescence intensity was measured using a FlexStation II (bottom read mode, excitation wavelength = […], emission = 520 nM with a cutoff of 510 nM). […] Additional details are available in the NIMH PDSP assay protocol book.

DAT = DAT (Homo sapiens, UniProt Q01959); experiment: Monoamine reuptake inhibition assay, DAT in HEK293 cells; format: cell-based; set-up: expressed in transfected cells; host or cells: HEK293; conditions: for Hill slope DAT reuptake inhibition: HEK293 cells
Protocol: as §2

M1 = M1 (Homo sapiens, UniProt P11229); experiment: NIMH PDSP radioligand binding, M1
H1 = H1 (Homo sapiens, UniProt P35367); experiment: NIMH PDSP radioligand binding, H1
Protocol: as §1

M2 = M2 (Homo sapiens, UniProt P08172); experiment: NIMH PDSP radioligand binding, M2
Alpha2A = Alpha2A (Homo sapiens, UniProt P08913); experiment: NIMH PDSP radioligand binding, Alpha2A
Protocol: as §1

NMDA receptor = experiment: NMDA receptor-mediated fEPSP (NMDAR-fEPSP) in CA1 of hippocampal slices; format: cell-based, rat; conditions: 10 μM
Protocol: (§3) Male Wistar rats (Crl:Wi; Charles River, UK) aged 9–10 wk were sacrificed by neck vertebral dislocation (schedule 1 method) according to the United Kingdom (Scientific Procedures) Act of 1986. […] The brain was cut parasagittally into 400 μm sections and hippocampal slices were removed, stored and placed in a submerged recording chamber at 28–30°C. Recordings of synaptic activity were made, analyzed and presented as described. A bipolar electrode was used to deliver stimuli (0.03 Hz) to the Schaffer collateral pathway to enable recording of field excitatory synaptic potentials (fEPSPs) using a glass microelectrode positioned in the stratum radiatum of area CA1. […] After 30 min of stable control responses, 1 and 10 μM solutions of the individual compounds were added to the perfusate for 3–12 h while recording the amplitude and area of the NMDAR-fEPSP on-line using WinLTP [31]. Single exponential curves were fitted to the graphs and curves extrapolated to show likely half-times and minimum plateau responses achieved with each concentration of the compounds. Raw data for all fEPSP experiments are provided as supporting information (S2, S3 and S4 Files).

AMPA receptor = experiment: AMPA receptor-mediated fEPSP in hippocampal slices (2-MXP selectivity); format: cell-based, rat
Protocol: as §3
To examine the specificity of DPH analogues, 2-MXP was superfused at 50 (n = 2) and 100 μM (n = 1) in the absence of AMPA and GABA receptor antagonists (Fig 3C).

DAT, sequence (Q01959 whole entry): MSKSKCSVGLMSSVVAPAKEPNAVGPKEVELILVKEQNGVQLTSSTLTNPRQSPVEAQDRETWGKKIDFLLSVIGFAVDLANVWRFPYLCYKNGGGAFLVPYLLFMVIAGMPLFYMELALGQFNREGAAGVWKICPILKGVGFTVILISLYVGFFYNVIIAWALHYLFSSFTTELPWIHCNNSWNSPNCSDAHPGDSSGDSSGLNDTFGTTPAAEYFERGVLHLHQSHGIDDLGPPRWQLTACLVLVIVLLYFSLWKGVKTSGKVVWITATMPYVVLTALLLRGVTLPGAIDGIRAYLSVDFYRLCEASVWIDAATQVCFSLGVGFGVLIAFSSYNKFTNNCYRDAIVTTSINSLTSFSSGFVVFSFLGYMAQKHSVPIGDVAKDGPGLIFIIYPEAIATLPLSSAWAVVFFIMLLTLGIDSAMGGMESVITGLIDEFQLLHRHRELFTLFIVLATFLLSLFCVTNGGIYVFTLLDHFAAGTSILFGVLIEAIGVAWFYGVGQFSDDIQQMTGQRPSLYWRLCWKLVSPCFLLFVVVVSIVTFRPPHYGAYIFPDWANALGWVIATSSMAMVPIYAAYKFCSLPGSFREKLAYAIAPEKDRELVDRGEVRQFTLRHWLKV
T2 sequence (P31645 whole entry): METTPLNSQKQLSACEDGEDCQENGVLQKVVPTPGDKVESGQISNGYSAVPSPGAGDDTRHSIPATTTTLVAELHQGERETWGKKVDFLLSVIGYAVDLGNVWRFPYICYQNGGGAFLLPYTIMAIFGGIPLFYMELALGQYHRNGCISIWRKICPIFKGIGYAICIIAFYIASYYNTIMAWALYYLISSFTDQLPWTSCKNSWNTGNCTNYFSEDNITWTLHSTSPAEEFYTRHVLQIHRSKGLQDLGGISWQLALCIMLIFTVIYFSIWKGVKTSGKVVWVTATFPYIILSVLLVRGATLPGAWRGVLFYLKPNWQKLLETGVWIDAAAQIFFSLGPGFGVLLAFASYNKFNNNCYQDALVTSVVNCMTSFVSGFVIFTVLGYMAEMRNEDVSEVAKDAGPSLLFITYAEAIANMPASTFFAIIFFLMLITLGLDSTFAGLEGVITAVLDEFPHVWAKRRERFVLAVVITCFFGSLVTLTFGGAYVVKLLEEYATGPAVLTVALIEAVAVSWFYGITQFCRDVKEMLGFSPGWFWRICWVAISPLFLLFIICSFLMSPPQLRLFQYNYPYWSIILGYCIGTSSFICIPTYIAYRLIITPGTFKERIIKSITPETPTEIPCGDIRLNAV
H1, sequence (P35367 whole entry): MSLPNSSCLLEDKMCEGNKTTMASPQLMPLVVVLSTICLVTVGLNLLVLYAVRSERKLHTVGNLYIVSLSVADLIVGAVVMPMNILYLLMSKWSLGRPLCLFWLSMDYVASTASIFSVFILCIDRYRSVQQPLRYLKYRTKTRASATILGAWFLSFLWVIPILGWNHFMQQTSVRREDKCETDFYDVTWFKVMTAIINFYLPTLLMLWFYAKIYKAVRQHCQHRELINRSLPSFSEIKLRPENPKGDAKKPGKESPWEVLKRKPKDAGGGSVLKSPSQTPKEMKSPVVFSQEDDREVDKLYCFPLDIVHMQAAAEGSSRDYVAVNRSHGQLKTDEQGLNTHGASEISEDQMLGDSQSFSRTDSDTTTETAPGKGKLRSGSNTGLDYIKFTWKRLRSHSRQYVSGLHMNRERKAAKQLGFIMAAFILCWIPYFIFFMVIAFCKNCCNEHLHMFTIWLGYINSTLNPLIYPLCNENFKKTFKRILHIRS
Alpha2B, sequence (P18089 whole entry): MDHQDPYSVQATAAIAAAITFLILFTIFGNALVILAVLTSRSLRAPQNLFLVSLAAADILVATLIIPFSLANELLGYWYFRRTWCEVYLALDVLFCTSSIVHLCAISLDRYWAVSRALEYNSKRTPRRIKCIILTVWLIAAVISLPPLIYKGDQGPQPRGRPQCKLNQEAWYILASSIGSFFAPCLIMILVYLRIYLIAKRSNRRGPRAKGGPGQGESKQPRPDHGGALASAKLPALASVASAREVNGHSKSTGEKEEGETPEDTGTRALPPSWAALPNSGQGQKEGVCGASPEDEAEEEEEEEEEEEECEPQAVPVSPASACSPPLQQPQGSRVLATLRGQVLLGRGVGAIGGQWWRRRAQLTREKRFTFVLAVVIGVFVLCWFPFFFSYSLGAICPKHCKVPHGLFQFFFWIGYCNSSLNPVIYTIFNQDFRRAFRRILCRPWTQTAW
NET, sequence (P23975 whole entry): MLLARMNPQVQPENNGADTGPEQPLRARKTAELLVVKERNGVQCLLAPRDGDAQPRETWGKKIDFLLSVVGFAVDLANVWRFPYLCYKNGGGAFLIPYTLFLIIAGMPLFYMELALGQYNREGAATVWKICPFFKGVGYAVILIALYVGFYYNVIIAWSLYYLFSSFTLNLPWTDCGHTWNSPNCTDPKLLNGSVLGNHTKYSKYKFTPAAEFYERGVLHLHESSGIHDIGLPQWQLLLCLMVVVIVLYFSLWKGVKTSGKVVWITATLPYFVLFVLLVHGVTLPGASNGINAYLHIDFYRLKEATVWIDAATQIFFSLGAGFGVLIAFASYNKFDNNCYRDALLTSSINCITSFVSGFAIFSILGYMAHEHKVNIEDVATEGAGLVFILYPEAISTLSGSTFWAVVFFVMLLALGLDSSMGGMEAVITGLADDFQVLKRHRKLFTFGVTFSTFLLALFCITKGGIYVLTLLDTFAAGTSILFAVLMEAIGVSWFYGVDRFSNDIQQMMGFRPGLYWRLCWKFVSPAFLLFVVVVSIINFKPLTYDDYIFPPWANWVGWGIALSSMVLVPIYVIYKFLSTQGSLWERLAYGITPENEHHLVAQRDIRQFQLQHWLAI
M1, sequence (P11229 whole entry): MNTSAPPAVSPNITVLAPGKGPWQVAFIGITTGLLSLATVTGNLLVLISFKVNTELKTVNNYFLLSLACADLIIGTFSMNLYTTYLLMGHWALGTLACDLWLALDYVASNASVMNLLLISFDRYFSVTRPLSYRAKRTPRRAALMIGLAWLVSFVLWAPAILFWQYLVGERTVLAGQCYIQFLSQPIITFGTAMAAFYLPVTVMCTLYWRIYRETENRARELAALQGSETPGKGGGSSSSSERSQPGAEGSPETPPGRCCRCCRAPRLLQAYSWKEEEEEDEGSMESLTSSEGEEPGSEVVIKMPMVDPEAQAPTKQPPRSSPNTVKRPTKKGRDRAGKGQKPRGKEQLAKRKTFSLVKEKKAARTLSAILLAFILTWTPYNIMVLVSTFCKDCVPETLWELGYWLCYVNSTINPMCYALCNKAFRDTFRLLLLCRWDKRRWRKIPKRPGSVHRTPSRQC
M2, sequence (P08172 whole entry): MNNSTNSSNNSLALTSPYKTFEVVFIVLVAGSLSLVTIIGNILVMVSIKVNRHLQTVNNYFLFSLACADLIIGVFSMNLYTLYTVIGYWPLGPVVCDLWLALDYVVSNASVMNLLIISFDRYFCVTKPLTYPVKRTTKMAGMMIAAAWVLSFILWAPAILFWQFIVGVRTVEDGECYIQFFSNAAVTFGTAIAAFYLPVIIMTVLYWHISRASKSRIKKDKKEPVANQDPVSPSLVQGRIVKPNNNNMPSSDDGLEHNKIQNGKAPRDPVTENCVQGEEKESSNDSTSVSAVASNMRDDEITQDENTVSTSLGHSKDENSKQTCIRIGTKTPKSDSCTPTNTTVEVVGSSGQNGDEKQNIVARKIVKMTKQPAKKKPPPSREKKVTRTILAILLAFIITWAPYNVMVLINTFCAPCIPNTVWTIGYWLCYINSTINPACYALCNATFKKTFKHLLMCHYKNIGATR
H3, sequence (Q9Y5N1 whole entry): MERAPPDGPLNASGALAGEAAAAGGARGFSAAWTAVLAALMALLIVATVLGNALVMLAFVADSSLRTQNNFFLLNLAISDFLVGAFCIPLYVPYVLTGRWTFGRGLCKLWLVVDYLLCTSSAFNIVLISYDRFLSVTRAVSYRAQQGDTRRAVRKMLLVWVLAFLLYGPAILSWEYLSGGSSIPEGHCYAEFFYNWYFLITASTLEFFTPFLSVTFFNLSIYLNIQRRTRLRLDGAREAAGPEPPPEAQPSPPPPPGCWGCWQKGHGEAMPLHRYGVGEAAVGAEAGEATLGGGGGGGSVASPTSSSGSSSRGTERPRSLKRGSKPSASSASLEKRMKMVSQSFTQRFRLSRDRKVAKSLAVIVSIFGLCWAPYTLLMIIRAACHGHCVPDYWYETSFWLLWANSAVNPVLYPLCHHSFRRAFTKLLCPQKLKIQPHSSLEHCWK
Alpha2A, sequence (P08913 whole entry): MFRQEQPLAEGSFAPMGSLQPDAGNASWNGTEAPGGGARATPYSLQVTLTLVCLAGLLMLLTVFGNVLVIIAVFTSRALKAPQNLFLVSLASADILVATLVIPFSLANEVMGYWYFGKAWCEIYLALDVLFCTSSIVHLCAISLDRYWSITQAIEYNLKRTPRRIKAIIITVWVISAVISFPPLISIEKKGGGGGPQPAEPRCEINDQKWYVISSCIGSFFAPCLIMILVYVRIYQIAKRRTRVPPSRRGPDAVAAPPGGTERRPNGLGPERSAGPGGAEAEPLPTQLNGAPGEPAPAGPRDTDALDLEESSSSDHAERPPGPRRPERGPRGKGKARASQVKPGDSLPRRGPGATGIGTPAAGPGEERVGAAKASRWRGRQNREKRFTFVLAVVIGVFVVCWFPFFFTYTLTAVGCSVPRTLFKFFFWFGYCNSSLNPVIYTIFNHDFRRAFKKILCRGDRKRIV

SMILES	Ki (H3)	NMDAR affinity relative to ketamine ([1]; higher affinity)	Ki [1]	Ki (Sigma 2)	Ki (NET)	Ki (Alpha2B)	IC50 (Human SERT)	IC50 (DAT)	Hill slope DAT reuptake inhibition (DAT)	Ki (M1)	Ki (H1)	Ki (M2)	Ki (Alpha2A)	effect on NMDAR-fEPSP (NMDA receptor)	effect on AMPA receptor-mediated fEPSP (AMPA receptor; 50 and 100 μM, without AMPA and GABA receptor antagonists)	potency as antagonist of NMDAR relative to AMPA receptor responses (AMPA receptor; hippocampal slices)
c1ccc(CC(c2ccccc2)N2CCCCC2)cc1 (stereo not shown) [DPH, diphenidine]	1020 nM	~ 18 fold	18.2 ± 2.2 nM	193 nM	2810 nM	4380 nM	> 10000 nM	1990 nM	0.91	2650 nM	1340 nM	3700 nM				
COc1ccccc1C(Cc1ccccc1)N1CCCCC1 (stereo not shown) [2-MXP, 2-methoxydiphenidine]			36 ± 3.7 nM	508 nM			> 10000 nM	30000 nM	0.81		533 nM		2000 nM	abolished	No reduction of the AMPA receptor-mediated fEPSP was seen	> 50 times
